Data from patent US8946205B2, “1,2,4-triazolo[4,3-a]pyridine derivatives and their use as positive allosteric modulators of mGluR2 receptors” (Janssen Pharmaceuticals, Inc., priority 2009, dated 2015).
Blank lines part the entries; values can stand above or below the molecule they belong to.

Legend:
[1] = target: T1, human mGluR2 receptor (Homo sapiens, UniProt Q14416); experiment: [35S]GTPγS binding assay (PAM assay, membranes from CHO cells transfected with the human mGluR2 receptor); type: biochemical; conditions: in presence of glutamate at EC20; pEC50 = -log EC50 (mol/L); read-out: GTPγS-hR2 PAM pEC50 (converted)
T1 construct: expressed in transfected cells; host or cells: CHO cells (membranes)
T1 sequence (Q14416 19-872): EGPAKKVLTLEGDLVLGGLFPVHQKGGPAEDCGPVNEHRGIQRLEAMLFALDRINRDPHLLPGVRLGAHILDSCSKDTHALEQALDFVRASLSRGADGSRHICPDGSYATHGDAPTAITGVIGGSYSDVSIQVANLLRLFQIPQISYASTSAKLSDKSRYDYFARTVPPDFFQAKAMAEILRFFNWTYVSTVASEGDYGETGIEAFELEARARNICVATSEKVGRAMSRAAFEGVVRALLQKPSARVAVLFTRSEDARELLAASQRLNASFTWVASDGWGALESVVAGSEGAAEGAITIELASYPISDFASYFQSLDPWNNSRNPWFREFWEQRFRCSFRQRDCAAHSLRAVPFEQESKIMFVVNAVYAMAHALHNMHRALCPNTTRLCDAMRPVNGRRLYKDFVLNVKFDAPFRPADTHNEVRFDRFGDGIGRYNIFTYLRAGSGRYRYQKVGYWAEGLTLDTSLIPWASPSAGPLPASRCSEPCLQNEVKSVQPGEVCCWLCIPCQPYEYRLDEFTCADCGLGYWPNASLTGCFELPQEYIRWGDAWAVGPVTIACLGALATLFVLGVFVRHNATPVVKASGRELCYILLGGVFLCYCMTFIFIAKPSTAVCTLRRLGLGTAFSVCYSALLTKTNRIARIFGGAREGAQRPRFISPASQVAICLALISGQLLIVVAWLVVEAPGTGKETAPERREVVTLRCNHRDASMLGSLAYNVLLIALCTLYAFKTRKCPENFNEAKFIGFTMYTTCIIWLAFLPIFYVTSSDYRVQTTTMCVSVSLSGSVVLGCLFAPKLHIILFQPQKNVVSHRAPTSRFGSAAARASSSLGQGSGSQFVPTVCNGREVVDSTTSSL
Description: The [^35S]GTPγS binding assay is a functional membrane-based assay used to study G-protein coupled receptor (GPCR) function whereby incorporation of a non-hydrolysable form of GTP, [^35S]GTPγS (guanosine 5′-triphosphate, labelled with […] ^35S), is measured. The G-protein α subunit catalyzes the exchange of guanosine 5′-diphosphate (GDP) by guanosine triphosphate (GTP) and on activation of the GPCR by an agonist, [^35S]GTPγS, becomes incorporated and cannot be cleaved to continue the exchange cycle (Harper (1998) Current Protocols in Pharmacology 2.6.1-10, John Wiley & Sons, Inc.). […] Here we describe the use of the [^35S]GTPγS binding assay using membranes from cells transfected with the human mGluR2 receptor and adapted from Schaffhauser et al. ((2003) Molecular Pharmacology 4:798-810) for the detection of the positive allosteric modulation (PAM) properties of the compounds of this invention.
CHO-cells were cultured to pre-confluence and stimulated with 5 mM butyrate for 24 h, prior to washing in PBS, and then collected by scraping in homogenisation buffer (50 mM Tris-HCl buffer, pH 7.4, 4° C.). Cell lysates were homogenized briefly using an ultra-turrax homogenizer. The homogenate was centrifuged at 16,000 RPM (Sorvall RC-5C plus rotor SS-34) for 10 minutes and the supernatant discarded. The pellet was resuspended in 5 mM Tris-HCl, pH 7.4 and centrifuged again (18,000 RPM, 20 min, 4° C.). The final pellet was resuspended in 50 mM Tris-HCl, pH 7.4 and stored at −80° C. in appropriate aliquots before use. Protein concentration was determined by the Bradford method (Bio-Rad, USA) with bovine serum albumin as standard.
Measurement of mGluR2 positive allosteric modulatory activity of test compounds was performed as follows. Test compounds and glutamate were diluted in assay buffer containing 10 mM HEPES acid, 10 mM HEPES salt, pH 7.4, 100 mM NaCl, 3 mM MgCl2 and 10 μM GDP. Human mGlu2 receptor-containing membranes were thawed on ice and diluted in assay buffer supplemented with 14 μg/ml saponin. Membranes were pre-incubated with compound alone or together with a predefined (˜EC20) concentration of glutamate (PAM assay) for 30 min at 30° C. After addition of [^35S]GTPγS (f.c. 0.1 nM) microplates were shaken briefly and further incubated to allow [^35S]GTPγS incorporation on activation (30 minutes, 30° C.). Final assay mixtures contained 7 μg of membrane protein in 10 mM HEPES acid, 10 mM HEPES salt, pH 7.4, 100 mM NaCl, 3 mM MgCl2,10 μM GDP and 10 μg/ml saponin. Total reaction volume was 200 μl. Reactions were terminated by rapid filtration through Unifilter-96 GF/B filter plates (Packard, Meriden, Conn.) using a 96-well Packard filtermate harvester. Filters were washed 6 times with ice-cold 10 mM NaH2PO4/10 mM Na2HPO4, pH 7.4. Filters were then air-dried, and 40 μl of liquid scintillation cocktail (Microscint-O) was added to each well. Membrane-bound radioactivity was counted in a Microplate Scintillation and Luminescence Counter from Packard.
The concentration-response curves of representative compounds of the present invention—obtained in the presence of EC20 of mGluR2 agonist glutamate to determine positive allosteric modulation (PAM)—were generated using the Lexis software interface (developed at J&J). Data were calculated as % of the control glutamate response, defined as the maximal response that is generated upon addition of glutamate alone. Sigmoid concentration-response curves plotting these percentages versus the log concentration of the test compound were analyzed using non-linear regression analysis. The concentration producing half-maximal effect is then calculated as EC50. The pEC50 values below are calculated as the −log EC50 (wherein EC50 is expressed in mol/L). […]

Compound: CCOCc1nnc2c(Cl)c(-c3cc(Cl)c4[nH]ccc4c3)ccn12 [Compound 23]
EC50 [1]: 0.0955 µM

Compound: CCOCc1nnc2c(Cl)c(-c3ccc4c(ccn4-c4ncccn4)c3)ccn12 [Compound 19]
EC50 [1]: 0.126 µM

Compound: Fc1cc(-c2ccn3c(CC4CC4)nnc3c2Cl)cc2cc[nH]c12 [Compound 28]
EC50 [1]: 0.117 µM | melting point: 235.5 °C

Compound: Clc1c(-c2ccc3c(ccn3C3CCOCC3)c2)ccn2c(CC3CC3)nnc12 [Compound 2]
EC50 [1]: 0.0646 µM | melting point: > 300 °C

Compound: Cc1c(-c2cnc3c(ccn3CC3CC3)c2)ccn2c(CC3CC3)nnc12 [Compound 40]
EC50 [1]: 0.407 µM | melting point: > 300 °C

Compound: CCOCc1nnc2c(C(F)(F)F)c(-c3ccc4[nH]ccc4c3)ccn12 [Compound 33]
melting point: 200.1 °C

Compound: Clc1c(-c2ccc3[nH]ccc3c2)ccn2c(CC3CC3)nnc12 [Compound 20]
EC50 [1]: 0.251 µM | melting point: > 300 °C

Compound: Clc1c(-c2cnc3c(ccn3CC3CCC3)c2)ccn2c(CC3CC3)nnc12 [Compound 39]
EC50 [1]: 0.126 µM | melting point: > 300 °C

Compound: Clc1c(-c2cccc3[nH]ccc23)ccn2c(CC3CC3)nnc12 [Compound 13]
EC50 [1]: 0.813 µM | melting point: > 300 °C

Compound: Clc1c(-c2cnc3c(ccn3CC3CC3)c2)ccn2c(CC3CC3)nnc12 [Compound 22, 8-Chloro-3-cyclopropylmethyl-7-(1-cyclopropylmethyl-1H-pyrrolo[2,3-b]pyridin-5-yl)-[1,2,4]triazolo[4,3-a]pyridine]
EC50 [1]: 0.324 µM | melting point: 184.7 °C

Compound: CC(C)(O)Cn1ccc2cc(-c3ccn4c(CC5CC5)nnc4c3Cl)ccc21 [Compound 9]
EC50 [1]: 0.158 µM

The remaining lines, values ahead:

EC50 [1]: 0.0468 µM | melting point: 195.6 °C
Compound: Fc1cc(-c2ccn3c(CC4CC4)nnc3c2Cl)cc2ccn(-c3cccnc3)c12 [Compound 48]

EC50 [1]: 0.0661 µM | melting point: > 300 °C
Compound: Clc1c(-c2ccc3c(ccn3-c3ccncc3)c2)ccn2c(CC3CC3)nnc12 [Compound 44]

EC50 [1]: 0.0166 µM | melting point: > 300 °C
Compound: FC(F)(F)c1c(-c2ccc3c(ccn3-c3ccncc3)c2)ccn2c(CC3CC3)nnc12 [Compound 43]

EC50 [1]: 0.0234 µM | melting point: 137.2 °C
Compound: Cc1ccc(-n2ccc3cc(-c4ccn5c(CC6CC6)nnc5c4Cl)ccc32)cn1 [Compound 21, 8-Chloro-3-cyclopropylmethyl-7-[1-(2-methylpyridin-5-yl)-1H-indol-5-yl]-[1,2,4]triazolo[4,3-a]pyridine]

EC50 [1]: 0.017 µM | melting point: > 300 °C
Compound: Cc1ccc(-n2ccc3cc(-c4ccn5c(CC6CC6)nnc5c4C(F)(F)F)cc(F)c32)cn1 [Compound 38]

EC50 [1]: 0.603 µM | melting point: > 300 °C
Compound: Clc1c(-c2cnc3c(ccn3-c3ccccn3)c2)ccn2c(CC3CC3)nnc12 [Compound 41]

EC50 [1]: 0.182 µM | melting point: > 300 °C
Compound: FC(F)(F)c1c(-c2cnc3c(ccn3CC3CC3)c2)ccn2c(CC3CC3)nnc12 [Compound 25]

EC50 [1]: 0.0339 µM
Compound: FC(F)(F)Cc1nnc2c(Cl)c(-c3ccc4c(ccn4-c4ncccn4)c3)ccn12 [Compound 6]

EC50 [1]: 0.871 µM
Compound: Clc1c(-c2ccc3nn(Cc4cccnc4)cc3c2)ccn2c(CC3CC3)nnc12 [Compound 11]

EC50 [1]: 0.0282 µM | melting point: 193.1 °C
Compound: FC(F)(F)c1c(-c2ccc3c(ccn3C3CCOCC3)c2)ccn2c(CC3CC3)nnc12 [Compound 3]

EC50 [1]: 0.0537 µM | melting point: > 300 °C
Compound: Clc1c(-c2ccc3c(ccn3-c3ncccn3)c2)ccn2c(CC3CC3)nnc12 [Compound 15]

melting point: 144.3 °C
Compound: FC(F)(F)c1c(-c2ccc3c(ccn3-c3cccnc3)c2)ccn2c(CC3CC3)nnc12 [Compound 34]

EC50 [1]: 0.011 µM | melting point: > 300 °C
Compound: FC(F)(F)c1c(-c2cc(Cl)c3[nH]ccc3c2)ccn2c(CC3CC3)nnc12 [Compound 14]

EC50 [1]: 0.0339 µM | melting point: 182.4 °C
Compound: CCOCc1nnc2c(C(F)(F)F)c(-c3ccc4c(ccn4-c4cccnc4)c3)ccn12 [Compound 30]

EC50 [1]: 0.0115 µM
Compound: FC(F)(F)c1c(-c2ccc3c(ccn3-c3ncccn3)c2)ccn2c(CC3CC3)nnc12 [Compound 7]
